From ChEMBL document CHEMBL1125558 (J Med Chem, 1992)

What was measured:
Assay type in all cases: functional
Rattus norvegicus [1] = test: Percent response at dose 10 mg/kg evaluated by dose-response tests in trained rats(post injection interval 15 min)
Rattus norvegicus [2] = test: Number of animals(n) completing 20 responses on either lever out of the number of animals tested (N) at dose 10 mg/kg evaluated by dose-response tests in trained rats(post injection interval 15 min); n/N=7/7
Rattus norvegicus [3] = test: Mean responses per minute at dose 10 mg/kg evaluated by dose-response tests in trained rats(post injection interval 15 min)
Rattus norvegicus [4] = test: Mean responses per minute at dose 2.5 mg/kg evaluated by dose-response tests in trained rats(post injection interval 15 min)
Rattus norvegicus [5] = test: Number of animals(n) completing 20 responses on either lever out of the number of animals tested (N) at dose 10 mg/kg evaluated by temporal tests in trained rats(post injection interval 5 min); n/N=7/7
Rattus norvegicus [6] = test: Mean responses per minute at dose 10 mg/kg evaluated by temporal tests in trained rats(post injection interval 30 min)
Rattus norvegicus [7] = test: Percent response at dose 10 mg/kg evaluated by temporal tests in trained rats(post injection interval 60 min)
Rattus norvegicus [8] = test: Number of animals(n) completing 20 responses on either lever out of the number of animals tested (N) at dose 5 mg/kg evaluated by dose-response tests in trained rats; n/N=7/7
Rattus norvegicus [9] = test: Percent response at dose 10 mg/kg evaluated by temporal tests in trained rats(post injection interval 30 min)
Rattus norvegicus [10] = test: Percent response at dose 10 mg/kg evaluated by temporal tests in trained rats(post injection interval 120 min)
Rattus norvegicus [11] = test: Mean responses per minute at dose 5 mg/kg evaluated by dose-response tests in trained rats(post injection interval 15 min)
Rattus norvegicus [12] = test: Mean responses per minute at dose 1.25 mg/kg evaluated by dose-response tests in trained rats(post injection interval 15 min)
Rattus norvegicus [13] = test: Mean responses per minute at dose 0.62 mg/kg evaluated by dose-response tests in trained rats(post injection interval 15 min)
Rattus norvegicus [14] = test: Number of animals(n) completing 20 responses on either lever out of the number of animals tested (N) at dose 1.25 mg/kg evaluated by dose-response tests in trained rats(post injection interval 15 min); n/N=7/7
Rattus norvegicus [15] = test: Percent response at dose 2.5 mg/kg evaluated by dose-response tests in trained rats(post injection interval 15 min)
Rattus norvegicus [16] = test: Mean responses per minute at dose 10 mg/kg evaluated by temporal tests in trained rats(post injection interval 15 min)
Rattus norvegicus [17] = test: Percent response at dose 10 mg/kg evaluated by temporal tests in trained rats(post injection interval 15 min)
Rattus norvegicus [18] = test: Percent response at dose 10 mg/kg evaluated by temporal tests in trained rats(post injection interval 5 min)
Rattus norvegicus [19] = test: Number of animals(n) completing 20 responses on either lever out of the number of animals tested (N) at dose 10 mg/kg evaluated by temporal tests in trained rats(post injection interval 60 min); n/N=7/7
Rattus norvegicus [20] = test: Number of animals(n) completing 20 responses on either lever out of the number of animals tested (N) at dose 10 mg/kg evaluated by temporal tests in trained rats(post injection interval 30 min); n/N=7/7
Rattus norvegicus [21] = test: Number of animals(n) completing 20 responses on either lever out of the number of animals tested (N) at dose 0.62 mg/kg evaluated by dose-response tests in trained rats(post injection interval 15 min); n/N=7/7
Rattus norvegicus [22] = test: Percent response at dose 1.25 mg/kg evaluated by dose-response tests in trained rats(post injection interval 15 min)
Rattus norvegicus [23] = test: Number of animals(n) completing 20 responses on either lever out of the number of animals tested (N) at dose 10 mg/kg evaluated by temporal tests in trained rats(post injection interval 15 min); n/N=7/7
Rattus norvegicus [24] = test: Percent response at dose 5 mg/kg evaluated by dose-response tests in trained rats(post injection interval 15 min)
Rattus norvegicus [25] = test: Number of animals(n) completing 20 responses on either lever out of the number of animals tested (N) at dose 2.5 mg/kg evaluated by dose-response tests in trained rats(post injection interval 15 min); n/N=7/7
Rattus norvegicus [26] = test: Percent response at dose 0.62 mg/kg evaluated by dose-response tests in trained rats(post injection interval 15 min)
Rattus norvegicus [27] = test: Mean responses per minute at dose 10 mg/kg evaluated by temporal tests in trained rats(post injection interval 60 min)
Rattus norvegicus [28] = test: Number of animals(n) completing 20 responses on either lever out of the number of animals tested (N) at dose 10 mg/kg evaluated by temporal tests in trained rats(post injection interval 120 min); n/N=7/7
Rattus norvegicus [29] = test: Mean responses per minute at dose 10 mg/kg evaluated by temporal tests in trained rats(post injection interval 120 min)
Rattus norvegicus [30] = test: Mean responses per minute at dose 10 mg/kg evaluated by temporal tests in trained rats(post injection interval 5 min)

## COC(=O)[C@H]1[C@@H](OC(=O)c2ccccc2)C[C@@H]2CC[C@H]1N2C [COCAINE]
Rattus norvegicus [1]
  Drug response: 99%
Rattus norvegicus [2]
  No. resp animals / Total: 7 / 7
Rattus norvegicus [3]
  Rate response: 76 min⁻¹
Rattus norvegicus [4]
  Rate response: 32 min⁻¹
Rattus norvegicus [5]
  No. resp animals / Total: 7 / 7
Rattus norvegicus [6]
  Rate response: 61 min⁻¹
Rattus norvegicus [7]
  Drug response: 81%
Rattus norvegicus [8]
  No. resp animals / Total: 7 / 7
Rattus norvegicus [9]
  Drug response: 100%
Rattus norvegicus [10]
  Drug response: 31%
Rattus norvegicus [11]
  Rate response: 89 min⁻¹
Rattus norvegicus [12]
  Rate response: 21 min⁻¹
Rattus norvegicus [13]
  Rate response: 27 min⁻¹
Rattus norvegicus [14]
  n/N: 7 / 7
Rattus norvegicus [15]
  Drug response: 61%
Rattus norvegicus [16]
  Rate response: 76 min⁻¹
Rattus norvegicus [17]
  Drug response: 99%
Rattus norvegicus [18]
  Drug response: 85%
Rattus norvegicus [19]
  No. resp animals / Total: 7 / 7
Rattus norvegicus [20]
  No. resp animals / Total: 7 / 7
Rattus norvegicus [21]
  No. resp animals / Total: 7 / 7
Rattus norvegicus [22]
  Drug response: 44%
Rattus norvegicus [23]
  No. resp animals / Total: 7 / 7
Rattus norvegicus [24]
  Drug response: 98%
Rattus norvegicus [25]
  No. resp animals / Total: 7 / 7
Rattus norvegicus [26]
  Drug response: 6%
Rattus norvegicus [27]
  Rate response: 23 min⁻¹
Rattus norvegicus [28]
  No. resp animals / Total: 7 / 7
Rattus norvegicus [29]
  Rate response: 28 min⁻¹
Rattus norvegicus [30]
  Rate response: 28 min⁻¹
